Measurements as given in PubChem BioAssay (NCI).
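Cultured in 96-well plates, cells were exposed to test compound for 48 hours across five concentrations. The concentration for full growth arrest is given as TGI.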

Assays:
Assay in all cases: NCI-60 cell line screen, 48 h
CAKI-1 renal = tested on: CAKI-1 renal
HS 578T breast = tested on: HS 578T breast
K-562 leukemia = tested on: K-562 leukemia
OVCAR-5 ovarian = tested on: OVCAR-5 ovarian
RPMI-8226 leukemia = tested on: RPMI-8226 leukemia
SF-539 CNS = tested on: SF-539 CNS
SK-MEL-2 melanoma = tested on: SK-MEL-2 melanoma
SNB-75 CNS = tested on: SNB-75 CNS
TK-10 renal = tested on: TK-10 renal

SMILES	TGI (CAKI-1 renal) [µM]	TGI (HS 578T breast) [µM]	TGI (K-562 leukemia) [µM]	TGI (OVCAR-5 ovarian) [µM]	TGI (RPMI-8226 leukemia) [µM]	TGI (SF-539 CNS) [µM]	TGI (SK-MEL-2 melanoma) [µM]	TGI (SNB-75 CNS) [µM]	TGI (TK-10 renal) [µM]
COc1ccc(CCNC(=O)Cc2ccccc2CCO)cc1OC	> 100	> 100	> 100	> 100	> 100	> 100	> 100	> 100	> 100
CNNC1=NS(=O)(=O)c2cc(C(=O)OC)c(Cl)cc2S1	> 10	> 10	> 10	> 10	> 10	> 10	> 10	> 10	> 10
COC(=O)c1ccc(/C=N/c2cc(C)nn2-c2ccccc2)cc1	> 100	> 100	> 100	> 100	> 100	> 100	> 100	96.8	6.18
O=c1[nH]ncc2[nH]c3c(c12)CCCc1ccccc1-3	> 100	45.8	> 100	> 100	84.9	> 100	> 100		> 100
COc1ccc(-c2c(N)n(-c3cc(OC)cc(OC)c3)c(=O)c3cc([N+](=O)[O-])ccc23)cc1	> 31.6	> 100	> 100	> 100	> 100	> 100	> 100	> 100	> 100
COC(=O)c1c(C)cccc1C1CN=NC12Cc1c(C)cccc1C2=O (centres undefined)	> 100	> 100	> 100	> 100	> 100	> 100	> 100	> 100	> 100
Cc1occc1C(=S)Nc1ccc(Cl)c(C(=O)OCC2CC2)c1	> 100	> 100	> 100	> 100	85.5	> 100	> 100	70.1	> 100
CN(C)c1ncc(-c2c[nH]c3ccccc23)nc1-c1c[nH]c2ccccc12	11	9.5	8.48	16.9	> 100	25.3	12.8	5.59	22.1
COC(=O)c1ccccc1C1CN=NC12Cc1c(C)c3c(c(C)c1C2=O)CCC3 (centres undefined)	> 100	> 100	> 100	> 100		> 100	> 100	> 100	90.8
N#CC1(C#N)C(c2ccccc2)NC23CCCCC2C1(C#N)C(=O)N3 (centres undefined)	> 100		> 100	> 100	> 100	> 100	> 100	> 100	
CNC(=O)OC(C)CN1c2ccccc2Sc2ccccc21 (centres undefined)	> 100	> 100	> 100	> 100		> 100			> 100
CC1(C)C2CCC1(C)C(NC(=O)CCN1CCOCC1)C2 (centres undefined)	> 100	> 100	> 100	> 100		> 100		> 100	> 100
CCOc1ccccc1N=NC1C(=O)N(C(=O)CC(=O)Nc2ccccc2Cl)N=C1C (centres undefined)	> 100	89		> 100	> 100	> 100	> 100	> 100	> 100
CC(C)Nc1n[nH]c(=O)n1C(C)C	> 100	> 100	> 100	> 100	> 100	> 100	> 100	> 100	> 100
O=C(C1=CCC2(CC1)OCCO2)N(Cc1ccccc1)c1ccccc1I	88.3	22.7	> 100	36.7	97.6		38.7	37	44.5
Clc1ccc(OCc2nnc(CCCCCCCCc3nnc(COc4ccc(Cl)cc4)o3)o2)cc1	> 100		> 100	> 100	> 100		> 100	> 100	> 100
COc1ccc(C(=O)N=C2N(c3ccccc3)C(=Nc3ccccc3)C(=Nc3ccccc3)N2c2ccccc2)cc1	> 100	96.5	> 100	> 100	> 100	> 100	98.1	27.2	> 61.2
O=C(c1cccs1)N(C(=S)OCc1ccccn1)c1ccccc1	> 100	> 100	> 100	> 100	> 100	> 100	> 100		> 100
COc1cccc(NC(=O)c2c(SC)n[nH]c2N)c1	> 100	> 100	> 100	> 100	> 100	> 100	> 100	> 100	> 100
Cc1ccc(-c2n[nH]c(=O)n2N)cc1	> 100	> 100	> 100	> 100	> 100	> 100	> 100	> 100	> 100
Cn1cc(C=C(C#N)C#N)c(=O)n(C)c1=O	> 100	> 100		> 100	> 100	> 100	> 100	> 100	> 100
S=c1scc(-c2ccc(Cl)cc2)n1OC1CCCC1	> 100	> 100	> 100	> 100		35.5	44.6	> 100	> 100
CC(=O)NC1C(OCc2ccccc2)OC(CO)C(O)C1OCC(=O)NC(C)C(=O)NC(CCC(=O)OCCNC(=O)c1cccc2cc3ccccc3nc12)C(N)=O (centres undefined)	30.2		> 100	69.3	19.3		70.9	51.1	41.6
